Test results published in PubChem BioAssay (NCI).
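Five concentrations, 48 hours, 96-well plates. TGI: total growth inhibition.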

How the values were obtained:
Assay in all cases: NCI tumour cell line growth inhibition, 48 h
A498 renal = tested on: A498 renal
A549 NSCLC = tested on: A549 NSCLC
CAKI-1 renal = tested on: CAKI-1 renal
CCRF-CEM leukemia = tested on: CCRF-CEM leukemia
COLO 205 colon = tested on: COLO 205 colon
DLD-1 colon = tested on: DLD-1 colon
DMS 114 small cell lung = tested on: DMS 114 small cell lung
DMS 273 small cell lung = tested on: DMS 273 small cell lung
EKVX NSCLC = tested on: EKVX NSCLC
HCC-2998 colon = tested on: HCC-2998 colon
HCT-116 colon = tested on: HCT-116 colon
HCT-15 colon = tested on: HCT-15 colon
HL-60(TB) leukemia = tested on: HL-60(TB) leukemia
HOP-18 NSCLC = tested on: HOP-18 NSCLC
HOP-62 NSCLC = tested on: HOP-62 NSCLC
HOP-92 NSCLC = tested on: HOP-92 NSCLC
HT29 colon = tested on: HT29 colon
IGROV1 ovarian = tested on: IGROV1 ovarian
K-562 leukemia = tested on: K-562 leukemia
KM12 colon = tested on: KM12 colon
KM20L2 colon = tested on: KM20L2 colon
LOX IMVI melanoma = tested on: LOX IMVI melanoma
M19-MEL melanoma = tested on: M19-MEL melanoma
MALME-3M melanoma = tested on: MALME-3M melanoma
MCF7 breast = tested on: MCF7 breast
NCI-H226 lung = tested on: NCI-H226 lung
NCI-H23 lung = tested on: NCI-H23 lung
NCI-H460 lung = tested on: NCI-H460 lung
NCI/ADR-RES ovarian = tested on: NCI/ADR-RES ovarian
OVCAR-3 ovarian = tested on: OVCAR-3 ovarian
OVCAR-4 ovarian = tested on: OVCAR-4 ovarian
OVCAR-5 ovarian = tested on: OVCAR-5 ovarian
OVCAR-8 ovarian = tested on: OVCAR-8 ovarian
P388 leukemia = tested on: P388 leukemia
P388/ADR leukemia = tested on: P388/ADR leukemia
RPMI-8226 leukemia = tested on: RPMI-8226 leukemia
RXF 393 renal = tested on: RXF 393 renal
SF-268 CNS = tested on: SF-268 CNS
SF-295 CNS = tested on: SF-295 CNS
SF-539 CNS = tested on: SF-539 CNS
SK-MEL-2 melanoma = tested on: SK-MEL-2 melanoma
SK-MEL-28 melanoma = tested on: SK-MEL-28 melanoma
SK-MEL-5 melanoma = tested on: SK-MEL-5 melanoma
SK-OV-3 ovarian = tested on: SK-OV-3 ovarian
SN12C renal = tested on: SN12C renal
SN12K1 renal = tested on: SN12K1 renal
SNB-19 CNS = tested on: SNB-19 CNS
SNB-75 CNS = tested on: SNB-75 CNS
SNB-78 CNS = tested on: SNB-78 CNS
SW-620 colon = tested on: SW-620 colon
U251 CNS = tested on: U251 CNS
UACC-257 melanoma = tested on: UACC-257 melanoma
UACC-62 melanoma = tested on: UACC-62 melanoma
UO-31 renal = tested on: UO-31 renal
XF 498 CNS = tested on: XF 498 CNS
MOLT-4 leukemia = tested on: MOLT-4 leukemia
NCI-H522 lung = tested on: NCI-H522 lung

`Cc1ccc2cc3cccc(C(=O)NCCN(C)C)c3nc2c1` showed a TGI (A498 renal) of 2.37 µM, a TGI (A549 NSCLC) of 5.05 µM and a TGI (CAKI-1 renal) of 10.8 µM. For the same compound, the TGI (CCRF-CEM leukemia) was 5.54 µM, the TGI (COLO 205 colon) was 2.51 µM and the TGI (DLD-1 colon) was 8.36 µM. The TGI (DMS 114 small cell lung) was 2.58 µM, the TGI (DMS 273 small cell lung) was 2.8 µM and the TGI (EKVX NSCLC) was 3.44 µM. The TGI (HCC-2998 colon) was 3.04 µM, the TGI (HCT-116 colon) was 6.23 µM and the TGI (HCT-15 colon) was 9.17 µM. It also gave a TGI (HL-60(TB) leukemia) of 2.49 µM, a TGI (HOP-18 NSCLC) of 7.36 µM and a TGI (HOP-62 NSCLC) of 6.17 µM. For the same compound, the TGI (HOP-92 NSCLC) was 2.75 µM, the TGI (HT29 colon) was 2.67 µM and the TGI (IGROV1 ovarian) was 9.09 µM. The TGI (K-562 leukemia) was > 31.3 µM, the TGI (KM12 colon) was 10 µM and the TGI (KM20L2 colon) was 3.08 µM. The TGI (LOX IMVI melanoma) was 6.08 µM, the TGI (M19-MEL melanoma) was 3.01 µM and the TGI (MALME-3M melanoma) was 2.49 µM. It also gave a TGI (MCF7 breast) of 5.19 µM, a TGI (NCI-H226 lung) of 4.16 µM and a TGI (NCI-H23 lung) of 3.4 µM. For the same compound, the TGI (NCI-H460 lung) was 1.94 µM, the TGI (NCI/ADR-RES ovarian) was 5.07 µM and the TGI (OVCAR-3 ovarian) was 5.67 µM. The TGI (OVCAR-4 ovarian) was 6.11 µM, the TGI (OVCAR-5 ovarian) was 4.28 µM and the TGI (OVCAR-8 ovarian) was 6.45 µM. The TGI (P388 leukemia) was 1.26 µM, the TGI (P388/ADR leukemia) was 1.46 µM and the TGI (RPMI-8226 leukemia) was 7.42 µM. The TGI (RXF 393 renal) was 2.73 µM, the TGI (SF-268 CNS) was 4.03 µM and the TGI (SF-295 CNS) was 3.91 µM. The TGI (SF-539 CNS) was 3.57 µM, the TGI (SK-MEL-2 melanoma) was 3.55 µM and the TGI (SK-MEL-28 melanoma) was 3.39 µM. For the same compound, the TGI (SK-MEL-5 melanoma) was 2.66 µM, the TGI (SK-OV-3 ovarian) was 7.87 µM and the TGI (SN12C renal) was 6.39 µM. For the same compound, the TGI (SN12K1 renal) was 5.59 µM, the TGI (SNB-19 CNS) was 8.1 µM and the TGI (SNB-75 CNS) was 4.75 µM. The TGI (SNB-78 CNS) was 7.78 µM, the TGI (SW-620 colon) was 6.46 µM and the TGI (U251 CNS) was 9.2 µM. The TGI (UACC-257 melanoma) was 2.74 µM, the TGI (UACC-62 melanoma) was 3.16 µM and the TGI (UO-31 renal) was 3.19 µM. For the same compound, the TGI (XF 498 CNS) was 3.68 µM.

`CCN(CC)c1c(C)c(C(=O)OC)nn1-c1ccccc1` was tested, and the TGI (A498 renal) was > 100 µM, the TGI (A549 NSCLC) was > 100 µM and the TGI (CAKI-1 renal) was > 86.3 µM. For the same compound, the TGI (CCRF-CEM leukemia) was > 100 µM, the TGI (COLO 205 colon) was > 100 µM and the TGI (DLD-1 colon) was > 100 µM. For the same compound, the TGI (DMS 114 small cell lung) was > 100 µM, the TGI (DMS 273 small cell lung) was > 100 µM and the TGI (EKVX NSCLC) was > 100 µM. For the same compound, the TGI (HCC-2998 colon) was > 100 µM, the TGI (HCT-116 colon) was > 100 µM and the TGI (HCT-15 colon) was > 100 µM. The TGI (HL-60(TB) leukemia) was > 100 µM, the TGI (HOP-18 NSCLC) was > 100 µM and the TGI (HOP-62 NSCLC) was > 100 µM. The TGI (HOP-92 NSCLC) was > 100 µM, the TGI (HT29 colon) was > 100 µM and the TGI (IGROV1 ovarian) was > 100 µM. The TGI (K-562 leukemia) was > 100 µM, the TGI (KM12 colon) was > 100 µM and the TGI (KM20L2 colon) was > 100 µM. For the same compound, the TGI (LOX IMVI melanoma) was > 100 µM, the TGI (M19-MEL melanoma) was > 100 µM and the TGI (MALME-3M melanoma) was > 100 µM. The TGI (MCF7 breast) was > 100 µM, the TGI (MOLT-4 leukemia) was > 100 µM and the TGI (NCI-H226 lung) was > 100 µM. The TGI (NCI-H23 lung) was > 100 µM, the TGI (NCI-H460 lung) was > 100 µM and the TGI (NCI-H522 lung) was > 100 µM. The TGI (NCI/ADR-RES ovarian) was > 100 µM, the TGI (OVCAR-3 ovarian) was > 100 µM and the TGI (OVCAR-4 ovarian) was > 100 µM. For the same compound, the TGI (OVCAR-5 ovarian) was > 100 µM, the TGI (OVCAR-8 ovarian) was > 100 µM and the TGI (P388 leukemia) was > 100 µM. For the same compound, the TGI (P388/ADR leukemia) was > 100 µM, the TGI (RPMI-8226 leukemia) was > 100 µM and the TGI (RXF 393 renal) was > 100 µM. For the same compound, the TGI (SF-268 CNS) was > 100 µM, the TGI (SF-295 CNS) was > 100 µM and the TGI (SF-539 CNS) was > 100 µM. The TGI (SK-MEL-2 melanoma) was > 100 µM, the TGI (SK-MEL-28 melanoma) was > 100 µM and the TGI (SK-MEL-5 melanoma) was > 100 µM. For the same compound, the TGI (SK-OV-3 ovarian) was > 100 µM, the TGI (SN12C renal) was > 100 µM and the TGI (SN12K1 renal) was > 100 µM. The TGI (SNB-19 CNS) was > 100 µM, the TGI (SNB-75 CNS) was > 100 µM and the TGI (SNB-78 CNS) was > 100 µM. For the same compound, the TGI (SW-620 colon) was > 100 µM, the TGI (U251 CNS) was > 100 µM and the TGI (UACC-257 melanoma) was > 100 µM. For the same compound, the TGI (UACC-62 melanoma) was > 100 µM, the TGI (UO-31 renal) was > 100 µM and the TGI (XF 498 CNS) was > 100 µM.
